Results from patent US20050234046A1 (Kalypsys, Inc., priority 2004, published 2005).

Tests used:
Assay in all cases: Transient transfection (transactivation) assay in CV-1 cells, GAL4-PPAR chimera, luciferase reporter
Format in all cases: cell-based
[1] = target: T1, PPAR gamma (Homo sapiens, UniProt P37231)
T1 construct: expressed in transfected cells; host or cells: CV-1 cells
T1 sequence (P37231 238-503 limits assumed): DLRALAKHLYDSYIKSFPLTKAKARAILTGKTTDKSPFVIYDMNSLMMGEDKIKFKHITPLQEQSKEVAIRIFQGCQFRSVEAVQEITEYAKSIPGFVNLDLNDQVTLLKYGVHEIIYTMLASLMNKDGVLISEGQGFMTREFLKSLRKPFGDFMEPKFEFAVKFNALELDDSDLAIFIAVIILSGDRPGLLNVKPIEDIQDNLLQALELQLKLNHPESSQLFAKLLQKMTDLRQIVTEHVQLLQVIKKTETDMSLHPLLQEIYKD
Excerpt: Compounds may be screened for functional potency in transient transfection assays in CV-1 cells or other cell types for their ability to activate the PPAR subtypes (transactivation assay). A previously established chimeric receptor system was utilized to allow comparison of the relative transcriptional activity of the receptor subtypes on the same synthetic response element and to prevent endogenous receptor activation from complicating the interpretation of results. […] The ligand binding domains for murine and human PPAR-alpha, PPAR-gamma, and PPAR-delta are each fused to the yeast transcription factor GAL4 DNA binding domain. CV-1 cells were transiently transfected with expression vectors for the respective PPAR chimera along with a reporter construct containing four or five copies of the GAL4 DNA binding site driving expression of luciferase. After 8-16 h, the cells are replated into multi-well assay plates and the media is exchanged to phenol-red free DME medium supplemented with 5% delipidated calf serum. 4 hours after replating, cells were treated with either compounds or 1% DMSO for 20-24 hours. Luciferase activity was then assayed with Britelite (Perkin Elmer) following the manufacturer's protocol and measured with either the Perkin Elmer Viewlux or Molecular Devices Acquest Xsee, for example, Kliewer, S. A., et. al. Cell 1995, 83, 813-819). Rosiglitazone is used as a positive control in the hPPAR-γ assay. Wy-14643 and GW7647 is used as a positive control in the hPPAR-α assay. GW501516 is used as the positive control in the hPPAR-δ assay.

[2] = target: T2, PPAR alpha (Homo sapiens, UniProt Q07869)
T2 construct: expressed in transfected cells; host or cells: CV-1 cells
T2 sequence (Q07869 239-466 limits assumed): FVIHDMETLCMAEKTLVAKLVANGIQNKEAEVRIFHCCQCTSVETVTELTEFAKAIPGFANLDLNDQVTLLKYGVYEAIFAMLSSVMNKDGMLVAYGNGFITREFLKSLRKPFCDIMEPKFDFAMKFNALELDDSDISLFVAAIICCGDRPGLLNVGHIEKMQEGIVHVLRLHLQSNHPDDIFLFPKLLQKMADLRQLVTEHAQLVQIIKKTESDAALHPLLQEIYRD
Excerpt: Compounds may be screened for functional potency in transient transfection assays in CV-1 cells or other cell types for their ability to activate the PPAR subtypes (transactivation assay). A previously established chimeric receptor system was utilized to allow comparison of the relative transcriptional activity of the receptor subtypes on the same synthetic response element and to prevent endogenous receptor activation from complicating the interpretation of results. See, for example; Lehmann, J. M.; Moore, L. B.; Smith-Oliver, T. A; Wilkinson, W. O.; Willson, T. M.; Kliewer, S. A., An antidiabetic thiazolidinedione is a high affinity ligand for peroxisome proliferatur-activated receptor γ (PPARγ), J. Biol. Chem., 1995, 270, 12953-6. The ligand binding domains for murine and human PPAR-alpha, PPAR-gamma, and PPAR-delta are each fused to the yeast transcription factor GAL4 DNA binding domain. CV-1 cells were transiently transfected with expression vectors for the respective PPAR chimera along with a reporter construct containing four or five copies of the GAL4 DNA binding site driving expression of luciferase. After 8-16 h, the cells are replated into multi-well assay plates and the media is exchanged to phenol-red free DME medium supplemented with 5% delipidated calf serum. 4 hours after replating, cells were treated with either compounds or 1% DMSO for 20-24 hours. Luciferase activity was then assayed with Britelite (Perkin Elmer) following the manufacturer's protocol and measured with either the Perkin Elmer Viewlux or Molecular Devices Acquest Xsee, for example, Kliewer, S. A., et. al. Cell 1995, 83, 813-819). Rosiglitazone is used as a positive control in the hPPAR-γ assay. Wy-14643 and GW7647 is used as a positive control in the hPPAR-α assay. GW501516 is used as the positive control in the hPPAR-δ assay.
Compounds of Examples 1-233 were assayed to measure their biological activity with respect to their EC50 values and efficacy for modulating PPAR-alpha, PPAR-gamma, and PPAR-delta as set forth in Table 3.

[3] = target: T3, PPAR delta (Homo sapiens, UniProt Q03181)
T3 construct: expressed in transfected cells; host or cells: CV-1 cells
T3 sequence (Q03181 211-439 limits assumed): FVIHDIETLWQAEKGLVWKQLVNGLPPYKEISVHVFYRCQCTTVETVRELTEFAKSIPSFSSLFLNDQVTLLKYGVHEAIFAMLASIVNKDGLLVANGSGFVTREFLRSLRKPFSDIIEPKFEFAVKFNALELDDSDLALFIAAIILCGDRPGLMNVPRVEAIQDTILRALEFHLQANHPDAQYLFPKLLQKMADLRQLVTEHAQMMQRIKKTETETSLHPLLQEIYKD

SMILES: Cc1ccc(S(=O)(=O)N2CCN(c3ccc(C(F)(F)F)cn3)C(C)C2)cc1CC(=O)O (stereo not drawn) [Example 23, [2-Methyl-5-[3-methyl-4-(5-trifluoromethyl-pyridin-2-yl)-piperazine-1-sulfonyl]-phenyl}-acetic acid]
- EC50 [1]: < 5 µM
- EC50 [2]: 5 to 100 µM
- EC50 [3]: < 5 µM

SMILES: Cc1ccc(S(=O)(=O)N2[C@H](C)CN(c3nc4ccccc4o3)C[C@@H]2C)cc1CC(=O)O [Example 24, [5-(4-Benzooxazol-2-yl-2,6-dimethyl-piperazine-1-sulfonyl)-2-methyl-phenyl]-acetic acid]
- EC50 [1]: > 100 µM
- EC50 [2]: > 100 µM
- EC50 [3]: 5 to 100 µM

SMILES: Cc1ccc(S(=O)(=O)N2[C@H](C)CN(c3nc4ccccc4s3)C[C@@H]2C)cc1CC(=O)O [Example 25, [5-(4-Benzothiazol-2-yl-2,6-dimethyl-piperazine-1-sulfonyl)-2-methyl-phenyl]-acetic acid]
- EC50 [1]: > 100 µM
- EC50 [2]: > 100 µM
- EC50 [3]: 5 to 100 µM

SMILES: Cc1ccc(S(=O)(=O)N2CCCN(c3nc4ccccc4o3)CC2)cc1CC(=O)O [Example 26, [5-(4-Benzooxazol-2-yl-[1,4]diazepane-1-sulfonyl)-2-methyl-phenyl]-acetic acid]
- EC50 [1]: > 100 µM
- EC50 [2]: > 100 µM
- EC50 [3]: 5 to 100 µM

SMILES: Cc1ccc(S(=O)(=O)N2CCCN(c3nc4ccccc4s3)CC2)cc1CC(=O)O [Example 27, [5-(4-Benzothiazol-2-yl-[1,4]diazepane-1-sulfonyl)-2-methyl-phenyl]-acetic acid]
- EC50 [1]: 5 to 100 µM
- EC50 [2]: > 100 µM
- EC50 [3]: 5 to 100 µM

SMILES: Cc1ccc(S(=O)(=O)N2CCN(c3ccc(C#N)cn3)CC2)cc1CC(=O)O [Example 28, {5-[4-(5-Cyano-pyridin-2-yl)-piperazine-1-sulfonyl]-2-methyl-phenyl}-acetic acid]
- EC50 [1]: > 100 µM
- EC50 [2]: > 100 µM
- EC50 [3]: < 5 µM

SMILES: COC(=O)[C@H]1CN(c2ccc(C(F)(F)F)cn2)CCN1S(=O)(=O)c1ccc(C)c(CC(=O)O)c1 [Example 29, (R)-1-(3-Carboxymethyl-4-methyl-benzenesulfonyl)-4-(5-trifluoromethyl-pyridin-2-yl)-piperazine-2-carboxylic acid methyl ester]
- EC50 [1]: > 100 µM
- EC50 [2]: > 100 µM
- EC50 [3]: < 5 µM

SMILES: CCc1ccc(N2CCN(S(=O)(=O)c3ccc(C)c(CC(=O)O)c3)CC2)cc1 [Example 30, {5-[4-(4-Ethyl-phenyl)-piperazine-1-sulfonyl]-2-methyl-phenyl}-acetic acid]
- EC50 [1]: 5 to 100 µM
- EC50 [2]: 5 to 100 µM
- EC50 [3]: < 5 µM

SMILES: Cc1ccc(S(=O)(=O)N2CCN(c3ccc(C(C)C)cc3)CC2)cc1CC(=O)O [Example 31]
- EC50 [1]: 5 to 100 µM
- EC50 [2]: < 5 µM
- EC50 [3]: < 5 µM

SMILES: Cc1ccc(S(=O)(=O)N2CCN(c3ccc(C(C)(C)C)cc3)CC2)cc1CC(=O)O [Example 32, {5-[4-(4-tert-Butyl-phenyl)-piperazine-1-sulfonyl]-2-methyl-phenyl}-acetic acid]
- EC50 [1]: 5 to 100 µM
- EC50 [2]: < 5 µM
- EC50 [3]: 5 to 100 µM

SMILES: Cc1ccc(S(=O)(=O)N2CCN(c3ccc(C(F)(F)F)cc3F)CC2)cc1CC(=O)O [Example 33]
- EC50 [1]: < 5 µM
- EC50 [2]: < 5 µM
- EC50 [3]: < 5 µM

SMILES: Cc1ccc(S(=O)(=O)N2CCN(c3ccc(C(F)(F)F)c(F)c3)CC2)cc1CC(=O)O [Example 34, {5-[4-(3-Fluoro-4-trifluoromethyl-phenyl)-piperazine-1-sulfonyl]-2-methyl-phenyl}-acetic acid]
- PPAR gamma EC50 [1]: B/C
- EC50 [2]: < 5 µM
- EC50 [3]: < 5 µM

SMILES: Cc1ccc(S(=O)(=O)N2CCN(c3cc(C(F)(F)F)ccn3)CC2)cc1CC(=O)O [Example 35, {2-Methyl-5-[4-(4-trifluoromethyl-pyridin-2-yl)-piperazine-1-sulfonyl]-phenyl}-acetic acid]
- EC50 [1]: 5 to 100 µM
- EC50 [2]: 5 to 100 µM
- EC50 [3]: < 5 µM

SMILES: Cc1ccc(S(=O)(=O)N2CCN(c3cccc(C(F)(F)F)n3)CC2)cc1CC(=O)O [Example 36, {2-Methyl-5-[4-(6-trifluoromethyl-pyridin-2-yl)-piperazine-1-sulfonyl]-phenyl}-acetic acid]
- EC50 [1]: < 5 µM
- EC50 [2]: 5 to 100 µM
- EC50 [3]: < 5 µM

SMILES: COC(=O)[C@@H]1CN(c2ccc(C(F)(F)F)cn2)CCN1S(=O)(=O)c1ccc(C)c(CC(=O)O)c1 [Example 37, (S)-1-(3-Carboxymethyl-4-methyl-benzenesulfonyl)-4-(S-trifluoromethyl-pyridin-2-yl)-piperazine-2-carboxylic acid methyl ester]
- EC50 [1]: > 100 µM
- EC50 [2]: > 100 µM
- EC50 [3]: < 5 µM

SMILES: Cc1ccc(S(=O)(=O)N2CCN(c3ccc(C(F)(F)F)cn3)C(C)(C)C2)cc1CC(=O)O [Example 38, {5-[3,3-Dimethyl-4-(5-trifluoromethyl-pyridin-2-yl)-piperazine-1-sulfonyl]-2-methyl-phenyl}-acetic acid]
- EC50 [1]: < 5 µM
- EC50 [2]: > 100 µM
- EC50 [3]: < 5 µM

SMILES: Cc1ccc(S(=O)(=O)N2CCN(c3ccc(C(F)(F)F)cn3)CC2(C)C)cc1CC(=O)O [Example 39, {5-[2,2-Dimethyl-4-(5-trifluoromethyl-pyridin-2-yl)-piperazine-1-sulfonyl]-2-methyl-phenyl}-acetic acid]
- EC50 [1]: < 5 µM
- EC50 [2]: > 100 µM
- EC50 [3]: < 5 µM

SMILES: COC[C@@H]1CN(S(=O)(=O)c2ccc(C)c(CC(=O)O)c2)CCN1c1ccc(C(F)(F)F)cn1 [Example 40]
- EC50 [1]: > 100 µM
- EC50 [2]: > 100 µM
- EC50 [3]: 5 to 100 µM

SMILES: COC(=O)[C@H]1CN(S(=O)(=O)c2ccc(C)c(CC(=O)O)c2)CCN1c1ccc(C(F)(F)F)cn1 [Example 41, (R)-4-(3-Carboxymethyl-4-methyl-benzenesulfonyl)- -(5-trifluoromethyl-pyridin-2-yl)-piperazine-2-carboxylic acid methyl ester]
- EC50 [1]: 5 to 100 µM
- EC50 [2]: > 100 µM
- EC50 [3]: < 5 µM

SMILES: COC(=O)[C@@H]1CN(S(=O)(=O)c2ccc(C)c(CC(=O)O)c2)CCN1c1ccc(C(F)(F)F)cn1 [Example 42, (S)-4-(3-Carboxymethyl-4-methyl-benzenesulfonyl)-1-(5-trifluoromethyl-pyridin-2-yl)-piperazine-2-carboxylic acid methyl ester]
- EC50 [1]: 5 to 100 µM
- EC50 [2]: > 100 µM
- EC50 [3]: < 5 µM

SMILES: Cc1ccc(S(=O)(=O)N2CCC(c3nccs3)CC2)cc1CC(=O)O [Example 43, [2-Methyl-5-(4-thiazol-2-yl-piperidine-1-sulfonyl)-phenyl]-acetic acid]
- EC50 [1]: > 100 µM
- EC50 [2]: > 100 µM
- EC50 [3]: > 100 µM

SMILES: Cc1ccc(S(=O)(=O)N2CCN(c3ncc(I)cn3)CC2)cc1CC(=O)O [Example 44, {5-[4-(5-Iodo-pyrimidin-2-yl)-piperazine-1-sulfonyl]-2-methyl-phenyl}-acetic acid]
- EC50 [1]: < 5 µM
- EC50 [2]: < 5 µM
- EC50 [3]: < 5 µM

SMILES: Cc1ccc(S(=O)(=O)N2CC=C(c3ccc(C(F)(F)F)cc3)CC2)cc1CC(=O)O [Example 45, {2-Methyl-5-[4-(4-trifluoromethyl-phenyl)-3,6-dihydro-2H-pyridine-1-sulfonyl]-phenyl}-acetic acid]
- EC50 [1]: 5 to 100 µM
- EC50 [2]: 5 to 100 µM
- EC50 [3]: < 5 µM

SMILES: Cc1ccc(S(=O)(=O)N2CCC(c3nc(C(F)(F)F)cs3)CC2)cc1CC(=O)O [Example 46, {2-Methyl-5-[4-(4-trifluoromethyl-thiazol-2-yl)-piperidine-1-sulfonyl]-phenyl}-acetic acid]
- EC50 [1]: 5 to 100 µM
- EC50 [2]: > 100 µM
- EC50 [3]: > 100 µM

SMILES: Cc1ccc(S(=O)(=O)N2CCN(c3ncccn3)CC2)cc1CC(=O)O [Example 47]
- EC50 [1]: 5 to 100 µM
- EC50 [2]: > 100 µM
- EC50 [3]: 5 to 100 µM
